Laboratory results as given in ChEMBL document CHEMBL4418493, “N-hydroxyformamide compounds and compositions comprising them for use as BMP1, TLL1 and/or TLL2 inhibitors” (2018).

What was measured:
[1] = Drug metabolism in heparinized pooled human plasma at pH 7.5 assessed as formation of (S)-2-(2-(carboxymethoxy)-4-(5-((((R)-2-((R)-1-(N-hydroxyformamido)propyl)heptanamido)methyl)carbamoyl)furan-2-yl)benzamido)succinic acid at 100 to 2000 ng/ml incubated up to 4 or 24 hrs by LC-MS/MS analysis; assay type: ADME, cell-free; conditions: pH 7.5, 24 h
[2] = Reduction in PICP levels in human cardiac fibroblasts incubated for 24 to 48 hrs by ELISA; assay type: functional
[3] = Drug metabolism in heparinized pooled human plasma at pH 7.5 assessed as formation of (3-ethoxy-5-(5-((((R)-2-((R)-1-(N-hydroxyformamido)propyl)heptanamido)methyl)carbamoyl) furan-2-yl)phenyl)phosphonic acid at 100 to 2000 ng/ml incubated up to 4 or 24 hrs by LC-MS/MS analysis; assay type: ADME, cell-free; conditions: pH 7.5, 24 h

CCCCC[C@@H](C(=O)NCNC(=O)c1ccc(-c2ccc(C(=O)N[C@@H](CC(=O)O)C(=O)O)c(OCC(=O)O)c2)o1)[C@@H](CC)N(C=O)OC(=O)c1ccc(CN2CCOCC2)cc1
Drug metabolism [1]: Metabolite_Detected
IC50 [2]: < 3.98 µM

CCCCC[C@@H](C(=O)NCNC(=O)c1ccc(-c2ccc(C(=O)N[C@@H](CC(=O)O)C(=O)O)c(OCC(=O)O)c2)o1)[C@@H](CC)N(C=O)OC(=O)C1(C)CC1
Drug metabolism [1]: Metabolite_Detected
IC50 [2]: < 3.98 µM

CCCCC[C@@H](C(=O)NCNC(=O)c1ccc(-c2cc(OCC)cc(P(=O)(O)O)c2)o1)[C@@H](CC)N(C=O)OC(=O)c1ccc(CN2CCOCC2)cc1
Drug metabolism [3]: Metabolite_Detected
IC50 [2]: < 3.98 µM

CCCCC[C@@H](C(=O)NCNC(=O)c1ccc(-c2cc(OCC)cc(P(=O)(O)O)c2)o1)[C@@H](CC)N(C=O)OC(=O)NC(C)C
Drug metabolism [3]: Metabolite_Detected
IC50 [2]: < 3.98 µM

CCCCC[C@@H](C(=O)NCNC(=O)c1ccc(-c2cc(OCC)cc(P(=O)(OCOC(=O)C(C)C)OCOC(=O)C(C)C)c2)o1)[C@@H](CC)N(O)C=O
Drug metabolism [3]: Metabolite_Detected

CCCCC[C@@H](C(=O)NCNC(=O)c1ccc(-c2ccc(C(=O)N[C@@H](CC(=O)O)C(=O)O)c(OCC(=O)O)c2)o1)[C@@H](CC)N(C=O)OC(=O)N(C)C(=O)OC(C)(C)C
Drug metabolism [1]: Metabolite_Detected
IC50 [2]: < 3.98 µM

CCCCC[C@@H](C(=O)NCNC(=O)c1ccc(-c2ccc(C(=O)N[C@@H](CC(=O)O)C(=O)O)c(OCC(=O)O)c2)o1)[C@@H](CC)N(C=O)OC(=O)c1c(C)cccc1OC
Drug metabolism [1]: Metabolite_Detected
IC50 [2]: < 3.98 µM

CCCCC[C@@H](C(=O)NCNC(=O)c1ccc(-c2cc(OCC)cc(P(=O)(O)O)c2)o1)[C@@H](CC)N(C=O)OC(=O)c1ccc2c(c1)OCCN2C
Drug metabolism [3]: Metabolite_Detected
IC50 [2]: < 3.98 µM

CCCCC[C@@H](C(=O)NCNC(=O)c1ccc(-c2cc(OCC)cc(P(=O)(O)O)c2)o1)[C@@H](CC)N(C=O)OC(=O)Nc1ccccc1
Drug metabolism [3]: Metabolite_Detected
IC50 [2]: < 3.98 µM

CCCCC[C@@H](C(=O)NCNC(=O)c1ccc(-c2cc(OCC)cc(P(=O)(O)O)c2)o1)[C@@H](CC)N(C=O)OC(=O)c1ccc(OC)cc1C(C)C
Drug metabolism [3]: Metabolite_Detected
IC50 [2]: < 3.98 µM

CCCCC[C@@H](C(=O)NCNC(=O)c1ccc(-c2cc(OCC)cc(P(=O)(O)O)c2)o1)[C@@H](CC)N(C=O)OC(=O)NC(C)(C)c1ccccc1
Drug metabolism [3]: Metabolite_Detected

CCCCC[C@@H](C(=O)NCNC(=O)c1ccc(-c2cc(OCC)cc(P(=O)(O)O)c2)o1)[C@@H](CC)N(C=O)OC(=O)c1ccc(CN2CCOCC2)cc1C
Drug metabolism [3]: Metabolite_Detected
IC50 [2]: < 3.98 µM

CCCCC[C@@H](C(=O)NCNC(=O)c1ccc(-c2ccc(C(=O)N[C@@H](CC(=O)O)C(=O)O)c(OCC(=O)O)c2)o1)[C@@H](CC)N(C=O)OC(=O)NC(C)C
Drug metabolism [1]: Metabolite_Detected
IC50 [2]: < 3.98 µM

CCCCC[C@@H](C(=O)NCNC(=O)c1ccc(-c2cc(OCC)cc(P(=O)(O)O)c2)o1)[C@@H](CC)N(C=O)OC(=O)c1ccc(F)cc1C(C)C
Drug metabolism [3]: Metabolite_Detected

CCCCC[C@@H](C(=O)NCNC(=O)c1ccc(-c2ccc(C(=O)N[C@@H](CC(=O)O)C(=O)O)c(OCC(=O)O)c2)o1)[C@@H](CC)N(C=O)OC(=O)c1ccccc1C(C)C
Drug metabolism [1]: Metabolite_Detected
IC50 [2]: < 3.98 µM

CCCCC[C@@H](C(=O)NCNC(=O)c1ccc(-c2cc(OCC)cc(P(=O)(O)O)c2)o1)[C@@H](CC)N(C=O)OC(=O)c1cccc(N2CCCC2)c1.N.N
Drug metabolism [3]: Metabolite_Detected

CCCCC[C@@H](C(=O)NCNC(=O)c1ccc(-c2ccc(C(=O)N[C@@H](CC(=O)O)C(=O)O)c(OCC(=O)O)c2)o1)[C@@H](CC)N(C=O)OC(=O)c1ccc(OC)cc1C(C)C
Drug metabolism [1]: Metabolite_Detected
IC50 [2]: < 3.98 µM

CCCCC[C@@H](C(=O)NCNC(=O)c1ccc(-c2cc(OCC)cc(P(=O)(O)O)c2)o1)[C@@H](CC)N(C=O)OC(=O)c1ccc(-n2cccc2)cc1.N.N
Drug metabolism [3]: Metabolite_Detected

CCCCC[C@@H](C(=O)NCNC(=O)c1ccc(-c2cc(OCC)cc(P(=O)(O)OCOC(=O)C(C)C)c2)o1)[C@@H](CC)N(O)C=O
Drug metabolism [3]: Metabolite_Detected

CCCCC[C@@H](C(=O)NCNC(=O)c1ccc(-c2ccc(C(=O)N[C@@H](CC(=O)O)C(=O)O)c(OCC(=O)O)c2)o1)[C@@H](CC)N(C=O)OC(=O)C(CCC)CCC
Drug metabolism [1]: Metabolite_Detected
IC50 [2]: < 3.98 µM

CCCCC[C@@H](C(=O)NCNC(=O)c1ccc(-c2cc(OCC)cc(P(=O)(O)O)c2)o1)[C@@H](CC)N(C=O)OC(=O)c1c(C)cccc1F
Drug metabolism [3]: Metabolite_Detected

CCCCC[C@@H](C(=O)NCNC(=O)c1ccc(-c2ccc(C(=O)N[C@@H](CC(=O)O)C(=O)O)c(OCC(=O)O)c2)o1)[C@@H](CC)N(C=O)OC(=O)c1ccc(OC)c(OC)c1
Drug metabolism [1]: Metabolite_Detected
IC50 [2]: < 3.98 µM

CCCCCCCCC(=O)ON(C=O)[C@H](CC)[C@@H](CCCCC)C(=O)NCNC(=O)c1ccc(-c2cc(OCC)cc(P(=O)(O)O)c2)o1
Drug metabolism [3]: Metabolite_Detected

CCCCC[C@@H](C(=O)NCNC(=O)c1ccc(-c2ccc(C(=O)N[C@@H](CC(=O)O)C(=O)O)c(OCC(=O)O)c2)o1)[C@@H](CC)N(C=O)OC(=O)c1ccccc1NC
Drug metabolism [1]: Metabolite_Detected
IC50 [2]: < 3.98 µM

CCCCC[C@@H](C(=O)NCNC(=O)c1ccc(-c2ccc(C(=O)N[C@@H](CC(=O)O)C(=O)O)c(OCC(=O)O)c2)o1)[C@@H](CC)N(C=O)OC(=O)c1ccccc1N
Drug metabolism [1]: Metabolite_Detected
IC50 [2]: < 3.98 µM

CCCCC[C@@H](C(=O)NCNC(=O)c1ccc(-c2ccc(C(=O)N[C@@H](CC(=O)O)C(=O)O)c(OCC(=O)O)c2)o1)[C@@H](CC)N(C=O)OC(=O)c1ccncc1C.N.N.N
Drug metabolism [1]: Metabolite_Detected
IC50 [2]: < 3.98 µM

CCCCC[C@@H](C(=O)NCNC(=O)c1ccc(-c2cc(OCC)cc(P(=O)(O)O)c2)o1)[C@@H](CC)N(C=O)OC(=O)c1ccccc1OC(=O)N(C)C
Drug metabolism [3]: Metabolite_Detected

CCCCC[C@@H](C(=O)NCNC(=O)c1ccc(-c2ccc(C(=O)N[C@@H](CC(=O)O)C(=O)O)c(OCC(=O)O)c2)o1)[C@@H](CC)N(C=O)OC(=O)c1c(C)ccnc1C
Drug metabolism [1]: Metabolite_Detected
IC50 [2]: < 3.98 µM

CCCCC[C@@H](C(=O)NCNC(=O)c1ccc(-c2ccc(C(=O)N[C@@H](CC(=O)O)C(=O)O)c(OCC(=O)O)c2)o1)[C@@H](CC)N(C=O)OC(=O)c1ccc(OC)cc1OC.N.N.N
Drug metabolism [1]: Metabolite_Detected
IC50 [2]: < 3.98 µM

CCCCC[C@@H](C(=O)NCNC(=O)c1ccc(-c2ccc(C(=O)N[C@@H](CC(=O)O)C(=O)O)c(OCC(=O)O)c2)o1)[C@@H](CC)N(C=O)OC(=O)c1ccc2ccccc2c1
Drug metabolism [1]: Metabolite_Detected
IC50 [2]: < 3.98 µM

CCCCC[C@@H](C(=O)NCNC(=O)c1ccc(-c2ccc(C(=O)N[C@@H](CC(=O)O)C(=O)O)c(OCC(=O)O)c2)o1)[C@@H](CC)N(C=O)OC(=O)C1CC1C (stereo not given in full)
Drug metabolism [1]: Metabolite_Detected

CCCCC[C@@H](C(=O)NCNC(=O)c1ccc(-c2ccc(C(=O)N[C@@H](CC(=O)O)C(=O)O)c(OCC(=O)O)c2)o1)[C@@H](CC)N(C=O)OC(=O)c1ccccc1OC(=O)N(C)C
Drug metabolism [1]: Metabolite_Detected

CCCCC[C@@H](C(=O)NCNC(=O)c1ccc(-c2cc(OCC)cc(P(=O)(O)O)c2)o1)[C@@H](CC)N(C=O)OC(=O)c1ccc(N2CCOCC2)cc1
Drug metabolism [3]: Metabolite_Detected

CCCCC[C@@H](C(=O)NCNC(=O)c1ccc(-c2ccc(C(=O)N[C@@H](CC(=O)O)C(=O)O)c(OCC(=O)O)c2)o1)[C@@H](CC)N(C=O)OC(=O)NC(C)(C)c1ccccc1
Drug metabolism [1]: Metabolite_Detected

CCCCC[C@@H](C(=O)NCNC(=O)c1ccc(-c2ccc(C(=O)N[C@@H](CC(=O)O)C(=O)O)c(OCC(=O)O)c2)o1)[C@@H](CC)N(C=O)OC(=O)c1ccc(F)cc1C(C)C
Drug metabolism [1]: Metabolite_Detected
IC50 [2]: < 3.98 µM

CCCCC[C@@H](C(=O)NCNC(=O)c1ccc(-c2ccc(C(=O)N[C@@H](CC(=O)O)C(=O)O)c(OCC(=O)O)c2)o1)[C@@H](CC)N(C=O)OC(=O)NC(C)(C)C
Drug metabolism [1]: Metabolite_Detected
IC50 [2]: < 3.98 µM

CCCCC[C@@H](C(=O)NCNC(=O)c1ccc(-c2ccc(C(=O)N[C@@H](CC(=O)O)C(=O)O)c(OCC(=O)O)c2)o1)[C@@H](CC)N(C=O)OC(=O)c1ccc(OC)cc1
Drug metabolism [1]: Metabolite_Detected

CCCCC[C@@H](C(=O)NCNC(=O)c1ccc(-c2ccc(C(=O)N[C@@H](CC(=O)O)C(=O)O)c(OCC(=O)O)c2)o1)[C@@H](CC)N(C=O)OC(=O)c1c(C)noc1C
Drug metabolism [1]: Metabolite_Detected
IC50 [2]: < 3.98 µM

CCCCC[C@@H](C(=O)NCNC(=O)c1ccc(-c2cc(OCC)cc(P(=O)(O)OCc3oc(=O)oc3C)c2)o1)[C@@H](CC)N(O)C=O
Drug metabolism [3]: Metabolite_Detected

CCCCC[C@@H](C(=O)NCNC(=O)c1ccc(-c2ccc(C(=O)N[C@@H](CC(=O)O)C(=O)O)c(OCC(=O)O)c2)o1)[C@@H](CC)N(C=O)OC(=O)C(c1ccccc1)c1ccccc1
Drug metabolism [1]: Metabolite_Detected
IC50 [2]: < 3.98 µM

CCCCC[C@@H](C(=O)NCNC(=O)c1ccc(-c2ccc(C(=O)N[C@@H](CC(=O)O)C(=O)O)c(OCC(=O)O)c2)o1)[C@@H](CC)N(C=O)OC(=O)NC
Drug metabolism [1]: Metabolite_Detected

CCCCC[C@@H](C(=O)NCNC(=O)c1ccc(-c2ccc(C(=O)N[C@@H](CC(=O)O)C(=O)O)c(OCC(=O)O)c2)o1)[C@@H](CC)N(C=O)OC(=O)c1ccc(CN2CCOCC2)cc1C
Drug metabolism [1]: Metabolite_Detected
IC50 [2]: < 3.98 µM

CCCCC[C@@H](C(=O)NCNC(=O)c1ccc(-c2ccc(C(=O)N[C@@H](CC(=O)O)C(=O)O)c(OCC(=O)O)c2)o1)[C@@H](CC)N(C=O)OC(=O)c1cccc2ccccc12
Drug metabolism [1]: Metabolite_Detected
IC50 [2]: < 3.98 µM
